Experimental data published in patent US9572786B2, “Use of capsiate or dihydrocapsidate” (Catholic University Industry Academy Cooperation Foundation, priority 2007, dated 2017).

Columns and labels:
Sprague dawley (SD) rats = assay: Retinal vascular permeability in streptozotocin induced diabetic retinopathy; type: in vivo, rat; conditions: intravitreally injected 1-week after streptozotocin, observed at 3 weeks with dextran FITC
Protocol: Diabetes are induced by performing intraperitoneal injection of 60 mg/kg of streptozotocin (Sigma, St Louis, Mo., USA) into 8-week-old male Sprague dawley (SD) rats (250 g). 3 days later, serum glucose level was measured and rats having serum glucose level of […] and more are selected and used in experiments. Capsiate or capsaicin was intravitreally injected 1-week after the injection of streptozotocin, respectively. 3 weeks after the injection of streptozotocin, 0.5 ml of dextran FITC (25 mg/ml, MW 40K, Sigma, St Louis, Mo., USA) was injected through tail vein of tested rats to imaging retinal vascular pattern. Retinal tissues of the rats are isolated and observed by fluorescent microscopy (Olympus, Tokyo, Japan). The increase of retinal vascular permeability is observed in nonproliferative diabetic retinopathy, proliferative diabetic retinopathy and diabetic macular edema and result from cracks in vascular vessel due to breakdown of blood-retinal barrier (BRB).

ERK = assay: MAPK signaling in mouse skin tissue, Western blotting: ERK; type: in vivo; conditions: hairless mouse; UV+CPT vs UV with acetone only
Protocol: In order to investigate the intracellular mechanism (signaling) related with the inhibition of COX-2 expression by capsiate, Western blotting was carried out for MAPK signaling-related proteins (ERK, p-ERK, p38, p-p38 and JNK, p-JNK) as in Example 2-2, using proteins isolated from the mouse skin tissue.

hairless mouse [1] = assay: Change of mouse skin tissue after UV, hematoxylin-eosin staining; type: in vivo; conditions: 4 times of UV irradiation every other day at 2.5 kJ/m^2
Protocol: (§1) When the skin is exposed to UV, erythema, or […] of the skin, occurs accompanied by edema, prior to a variety of cellular changes including inflammation, apoptosis, carcinogenesis, or the like [Tadashi Terui, Hachiro Tagami, Mediators of inflammation involved in UVB erythema, Journal of Dermatological Science 23 Suppl. 1 (2000) S1S5]. In order to investigate the effect of capsiate on erythema accompanied by UV-induced inflammatory response, experiment was carried out as follows using hairless mouse. Test groups were as follows: non-treated group—treated with acetone only without UV irradiation; test group A—treated with 200 μL of 1 mM capsiate dissolved in acetone without UV irradiation; UV group—treated with acetone and UV; test group B—treated with UV and 200 μL of 1 mM capsiate dissolved in acetone every 24 hours.
After 4 times of UV irradiation every other day at an intensity of 2.5 kJ/m^2, hematoxylin-eosin staining was carried out in order to observe the change of mouse skin tissue.

hairless mouse [2] = assay: UV-induced erythema in hairless mouse; type: in vivo; conditions: 200 μL of 1 mM topically, UV 400, 600 and 800 J/m^2, 48 hours later
Protocol: as §1
Acetone or capsiate diluted in acetone was applied on the back of the mouse of each test group. 1 hour later, a mask was attached on the back of the mouse such that UV could be irradiated only on an area of 1.2 cm×1.2 cm. UV was irradiated at an intensity of 400, 600 and 800 J/m^2. The degree of erythema was measured 48 hours later.

JNK = assay: MAPK signaling after UV, Western blotting: JNK; type: cell-based, human; conditions: HaCaT cells; 10, 25, 50 μM; 30 minutes after UV irradiation
Protocol: Western blotting was performed in the same manner as in Example 2-1 in order to identify the factor that affects the COX-2 expression regulated by capsiate, except for treating the cells with capsiate at different concentrations (10 μM, 25 μM and 50 μM) prior to UV irradiation, and using rabbit anti-ERK antibody, rabbit anti-p-ERK antibody, rabbit anti-p38 antibody, rabbit anti-p-p38 antibody, rabbit anti-JNK antibody and rabbit anti-p-JNK antibody (cell signaling), and anti-rabbit IgG-HRP conjugation antibody (Zymed) as the secondary antibody, 30 minutes after UV irradiation.

COX-2 = assay: UV-induced COX-2 expression in mouse skin tissue, Western blotting; type: in vivo; conditions: hairless mouse; 200 μL of 1 mM topically; 4 times of UV irradiation
Protocol: In order to confirm the in vitro experiment result performed on the human keratinocyte HaCaT cells in an animal model, experiment was carried out as follows using hairless mouse (SKH-1). Test groups were as follows: non-treated group—treated with acetone only without UV irradiation; test group A—treated with 200 μL of 1 mM capsiate dissolved in acetone every 24 hours without UV irradiation; control group—treated with UV and acetone; test group B—treated with UV and 200 μL of 1 mM capsiate dissolved in acetone every 24 hours (Unspecified conditions are the same as in Examples 5-7.).
Capsiate was applied on the back of the mouse. 1 hour later, UV was irradiated at an intensity of 2.5 kJ/m^2. 1 hour later, capsiate was applied again at the same concentration in order to prevent rash which may occur immediately after UV irradiation. Thereafter, capsiate was applied every 24 hours and UV irradiation was carried out every other day at an intensity of 2.5 kJ/m^2 for 4 times. In order to investigate the change of tissue and intracellular mechanism (signaling), the mouse was euthanized 1 hour after the final UV irradiation. Skin tissue was taken from the back of the mouse and subjected to skin biopsy following observation.
In the foregoing, it was confirmed that capsiate suppress inflammatory response, angiogenesis, edema, etc. caused by the UV-induced skin damage. […]

In the case of COc1cc(COC(=O)CCCC/C=C/C(C)C)ccc1O [capsiate], the “increment of retinal vascular permeability” value (Sprague dawley (SD) rats) is reported as “inhibited”, the “ERK phosphorylation in mouse skin tissue” value (ERK) is reported as “suppressed phosphorylation” and the “thickness of the epidermis (hematoxylin-eosin staining)” value (hairless mouse [1]) is reported as “less thick”. The degree of erythema (hairless mouse [2]) was “weaker”, the “JNK (phosphorylation)” value (JNK) was “no particular change” and the “expression of COX-2 induced in mouse skin tissue (Western blotting)” value (COX-2) was “remarkably decreased”.
